Data: US20220249352A1, “MICROPARTICLES BASED ON ESTER DERIVATIVES OF HYALURONAN, METHOD OF PRODUCTION, COMPOSITION COMPRISING THEREOF AND USE THEREOF” (CONTIPRO A.S., priority 2019, published 2022)

Legend:
[1] = Thermogravimetric analysis (TGA), thermal decomposition; assay type: physicochemical
Description: In this disclosure, it is further reported that the amount of active ATRA is conserved after four weeks of storage at 40° C., in the absence of any further toxic antioxidant, which is an advantage to the previously reported art such as US 20190015366 A1 and WO2015092602A1, that require the presence of the toxic benzoyl peroxide, which have been reported as an inductor of photo-carcinogenesis in hairless mice after solar radiation. Similar art was reported in US20100166852A1. In the present embodiments, the microparticles made of HA−ATRA were stored for prolonged times in the presence of air the microparticles are stable, while the obtained powders degraded faster (FIGS. 2 and 4). […] In this disclosure, the thermal decomposition of the HA−ATRA microparticles was compared with the native polysaccharide and pure retinoic acid using thermogravimetric analysis (TGA) according to de Mendonça CMS, de Barros Lima IP, Aragão CFS, Gomes APB in Thermal compatibility between hydroquinone and retinoic acid in pharmaceutical formulations. Journal of Thermal Analysis and calorimetry 2014; 115:2277-85.
In brief, the TGA (Thermogravimetric analyses) was performed on the microparticles on a […]. About 2 mg of powder was accurately weighed samples were loaded into aluminum pans and analyzed. […]

[2] = tested on: HMGCS1 mRNA expression in HaCaT keratinocyte cells; assay: Expression of cholesterol synthesis gene HMGCS1 (QRT-PCR); assay type: cell-based; conditions: HaCaT keratinocytes, 48 hours
Description: (§1) This example illustrates the expressional changes in keratinocyte cholesterol metabolism pathway components (upon treatment with HA−ATRA (prepared as described in examples 5, 9), unbound ATRA and HA (HA+ATRA), hyaluronan (HA), untreated control (CTRL), retinoic isomers (13-cis-RET) and 9 cis (9-cis-RET). The HaCaT keratinocyte cells were individually treated with the compounds described below for 48 hours and sampled in the indicated times. The mRNA expression of HMGCS1, SQLE and DHRS3 was analyzed with quantitative real-time PCR (QRT-PCR) using a StepOnePlus (ThermoFisher, Waltham, Mass., USA). Briefly, 500 ng of total RNA was transcribed to cDNA (High-Capacity cDNA Reverse Transcription Kit, ThermoFisher, Waltham, Mass., USA). Approximately 5 ng of cDNA was used for QRT-PCR reaction in 10 μl volume. The TaqMan assays (all from ThermoFisher, Waltham, Mass., USA) used were: HMGCS1 (Hs00940429_m1), SQLE (Hs01123768_m1), DHRS3 (Hs01044021_m1) and RPL13A (Hs04194366_g1). Duplicate reaction tubes were set up for each sample. All expression values for HMGCS1, SQLE and DHRS3 were related to the amount of the housekeeping gene RPL13A to correct for variations in RNA levels and efficiency in cDNA synthesis. Regarding the analyzed enzyme involved in cholesterol synthesis, only treatment with microparticles of HA−ATRA increased the expression of HMGCS1 and SQLE, all samples containing retinoids increased expression of positive control DHRS3 (FIG. 10). However, microparticles HA−ATRA can upregulate cholesterol synthesis gene HMGCS1 like when the molarity of the retinoic acid bound to HA is the same in both treatments, this is shown in FIG. 11.

[3] = tested on: SQLE mRNA expression in HaCaT keratinocyte cells; assay: Expression of cholesterol synthesis gene SQLE (QRT-PCR); assay type: cell-based; conditions: HaCaT keratinocytes, 48 hours
Description: as §1

SMILES | temperature range of decomposition (three stages, TG curve) [1] | expression of HMGCS1 [2] | expression of SQLE [3]
CC(C=CC1=C(C)CCCC1(C)C)=CC=CC(C)=CC(=O)O [ATRA, 3,7-dimethyl-9-(2,6,6-trimethyl-1-cyclohexene-1-yl)-2,4,6,8-nonatetraenoic acid] | 185−609 °C | did not induce | did not induce
CC1=C(/C=C/C(C)=C/C=C/C(C)=C\C(=O)O)C(C)(C)CCC1 [13-cis retinoic acid] | – | neither unbound 9-cis retinoic nor 13-cis retinoic acid were able to upregulate | neither unbound 9-cis retinoic nor 13-cis retinoic acid were able to upregulate
CC1=C(/C=C/C(C)=C\C=C\C(C)=C\C(=O)O)C(C)(C)CCC1 [9-cis retinoic, 9-cis retinoic acid] | – | neither unbound 9-cis retinoic nor 13-cis retinoic acid were able to upregulate | neither unbound 9-cis retinoic nor 13-cis retinoic acid were able to upregulate
